Reference: patent US10117903B1, “Method for regulating cancer stem cell growth by inhibiting phosphorylation of 120th threonine residue of TSPYL5 protein, a composition containing the peptide sequence functioning to inhibit the phosphorylation and a use thereof” (Korea Atomic Energy Research Institute, priority 2016, dated 2018)
Where a SMILES comes first, the peptide text is derived from it. The star is where a group is joined. Cbz = O=C(OCc1ccccc1)*

Columns and labels:
Format in all cases: cell-based
A549 cells [1] = test: Transwell migration assay (cancer cell metastasis) after peptide treatment; conditions: 10 μM peptide, 40 hours, compared with the control
Procedure: (§1) The mixture was loaded in the transwell upper chamber. In the lower chamber, 500 μl of RPMI1640 supplemented with 7% FBS was loaded. Then, the two chambers were combined together. The cells were cultured in a 37° C. 5% CO2 incubator for 40 hours. The upper chamber membrane was wiped with cotton swabs, stained with crystal violet, and then observed under microscope.
(§2) For invasion assay, the transwell upper chamber was coated with 100 μl of matrigel (20 μg/well; BD Biosciences). Then, the rest of the process was the same as described in the migration assay above. The cells stained with crystal violet were eluted with 500 μl of 10% acetic acid. OD600 was measured to calculate the relative migration/invasion value of A549 cells.

A549 cells [2] = test: Sphere formation after peptide treatment; conditions: 10 μM of each peptide, 10 days, compared with the control
Procedure: To investigate the capacity of TSPYL5 peptide to inhibit the sphere formation, 2×10^4 A549 cells (non-small cell lung cancer cells) were suspended in DMEM (Invitrogen) containing stem cell-permissive medium. 20 ng/ml of EGF, 20 ng/ml of basic fibroblast growth factor (bFGF) and B27 serum-free supplement (Invitrogen) were mixed with DMEM-F12 (Invitrogen). The cells were distributed in the 96 well plate pre-coated with 0.8% agar (one cell/well), to which 10 μM of each peptide was treated, followed by culture. The cells were cultured in a 37° C. 5% CO2 incubator for 10 days. Then, the sphere formation was observed.

A549 cells [3] = test: Matrigel transwell invasion assay after peptide treatment; conditions: 10 μM peptide, matrigel-coated transwell, compared with the control
Procedure: as §1, §2

A549 cells [4] = test: Cancer cell proliferation (colony-forming ability) after peptide treatment; conditions: 10 μM of each peptide, 8 days, crystal violet staining, compared with DMSO control
Procedure: Particularly, 1×10^3 A549 cells were distributed on a 35 mm plate, which were treated with 10 μM of each peptide. As for the control, DMSO was treated thereto, followed by culture in a 37° C. 5% CO2 incubator for 8 days. The cells were stained with 0.5% crystal violet for 10 minutes. The cells were washed with PBS several times and then cell proliferation was investigated.

TSPYL5 = test: Ubiquitination assay of TSPYL5
Procedure: H460 cells were transfected with pcDNA3.1/TSPYL5 (wild-type) and pcDNA3.1/TSPYL5-120A constructed in Example 1. 48 hours later, 10 μM MK2206 was treated to the cells for 1 hour and then the cells were recovered. A protease inhibitor was added to a cell lysis solution (2% SDS, 150 mM NaCl, 10 mM Tris-HCl, pH 8.0), followed by mixing. 100 μl of the solution was added to the cells. The cells were lysed by using a sonicator. Centrifugation was performed at 13000 rpm. The supernatant was obtained, which was diluted in a diluting solution (0.01% SDS, 1.1% Triton X-100, 1.2 mM EDTA, 16.7 mM Tris-HCl (pH8.1), 167 mM NaCl) at 1/10, followed by reaction at 4° C. for 30 minutes. TSPYL5 or ubiquitin specific antibody was added thereto, followed by reaction for overnight to induce protein binding. Protein A/G agarose beads were added thereto, followed by reaction for 4 hours. The protein was washed with washing buffer (10 mM Tris-HCl pH 8.0, 1 M NaCl, 1 mM EDTA, 1% NP40) twice. The protein was mixed with loading buffer and heated at 95° C. Samples were loaded, followed by reaction with TSPYL5 or ubiquitin specific antibody to confirm the protein expression.

TSPYL5 protein [5] = test: TSPYL5 expression after inhibition of AKT phosphorylation (PCR and Western blotting); conditions: A549 cells
Procedure: In addition, 20 μM of MK2206 (Santa Cruze Biotechnology), the AKT (serine/threonine protein kinase) inhibitor, was treated thereto, followed by investigation of the inhibition of AKT phosphorylation and the inhibition of TSPYL5 expression.
Western blotting was performed as follows in order to investigate the protein expression. Lysis buffer (0.05 M Tris-Cl (pH7.4), 0.15 M NaCl, 0.25% deoxycholic acid, 1% NP-40, 1 mM EDTA, and protease inhibitor cocktail) was added to the target cells, followed by reaction at 4° C. for 30 minutes. The cell lysate was centrifuged at 4° C. to obtain the supernatant. The supernatant was quantified. 40 μg of each protein was loaded on SDS-gel, followed by electrophoresis. The proteins were transferred onto nitrocellulose membrane, followed by blocking with BSA containing buffer at room temperature for 30 minutes. Then, the membrane was reacted with the primary antibody PTEN (1:1000), TSPYL5 (Santa Cruz), ALDH1A1, ALDH1A3 (Abcam), CD44, and β-actin, or GAPDH (CST) for 4 hours. Then, the membrane was reacted with the secondary antibody (1:10000). The nitrocellulose membrane was washed 5 times with PBS, followed by sensitization on the film with the detection solution. […]

A549 cells [6] = test: Western blotting after AKT/PI3K inhibitor treatment; conditions: 10 μM MK2206 or 50 μM LY294002, Western blotting
Procedure: Western blotting was performed as follows in order to investigate the protein expression. Lysis buffer (0.05 M Tris-Cl (pH7.4), 0.15 M NaCl, 0.25% deoxycholic acid, 1% NP-40, 1 mM EDTA, and protease inhibitor cocktail) was added to the target cells, followed by reaction at 4° C. for 30 minutes. The cell lysate was centrifuged at 4° C. to obtain the supernatant. The supernatant was quantified. 40 μg of each protein was loaded on SDS-gel, followed by electrophoresis. The proteins were transferred onto nitrocellulose membrane, followed by blocking with BSA containing buffer at room temperature for 30 minutes. Then, the membrane was reacted with the primary antibody PTEN (1:1000), TSPYL5 (Santa Cruz), ALDH1A1, ALDH1A3 (Abcam), CD44, and β-actin, or GAPDH (CST) for 4 hours. Then, the membrane was reacted with the secondary antibody (1:10000). The nitrocellulose membrane was washed 5 times with PBS, followed by sensitization on the film with the detection solution.
(§3) 1×10^5 A549 cells placed on the culture dish with the cover glass were treated with 10 μM of MK2206 (AKT inhibitor) and 50 μM of LY294002 (PI3K inhibitor) for 4 hours. The cells were fixed in 4% paraformaldehyde solution for 20 minutes. Then, the cover glass was washed with PBS three times and then treated with 0.5% TritonX-100 solution for 5 minutes. The cover glass was washed again with PBS three times. The cells were treated with 1% BSA for 2 hours, followed by reaction with the primary antibody TSPYL5 (Santa Cruz) diluted in PBS buffer at the ratio of 1:100 for 2 hours. Then, the cells were reacted with the secondary antibody Rabbit (Cell Signaling Technology) diluted at the ratio of 1:1000 for 1 hour. The cells were washed with PBS three times, and then the nucleus was stained with DAPI solution for 5 minutes. The location and the amount of TSPYL5 expression were investigated under fluorescent microscope.
Western blotting was also performed by the same manner as described in Experimental Example <1-1>. As a result, when AKT or PI3K inhibitor was treated to the cells, the expressions of TSPYL5, phosphorylated AKT, CD44, ALDH1A3, and ALDH1A1 were reduced.

TSPYL5 protein [7] = test: Location of TSPYL5 expression in cells after AKT/PI3K inhibitor (fluorescent microscope); conditions: A549 cells, 10 μM MK2206 or 50 μM LY294002, 4 hours
Procedure: as §3

TSPYL5 protein [8] = test: TSPYL5 nuclear expression after SUMOylation inhibition; conditions: A549 cells, 3 uM, 2 hours
Procedure: However, in the cells expressing pcDNA3.1/TSPYL5-120A, the SUMOylation was not observed. To confirm the SUMOylation inhibition, the SUMO1 inhibitor ginkgolic acid (Abcam) was treated to A549 cells at the concentration of 3 uM for 2 hours.

[9] = H460 cells transfected with pcDNA3.1/TSPYL5, 10 μM MK2206, 1 hour

In the case of “SERSAADTVFVGTAG (TS120T) [15 mer peptide containing the 120th residue threonine of TSPYL5]”, the “metastasis (migration)” value (A549 cells [1]) was “reduced”, the sphere formation (A549 cells [2]) was “suppressed” and the sphere formation (A549 cells [2]; listed as SEQ. ID. NO: 43) was “inhibited”. The invasion (A549 cells [3]) was “reduced”, the cell proliferation (A549 cells [4]) was “significantly inhibited” and the cell proliferation (A549 cells [4]; listed as SEQ. ID. NO: 43) was “reduced”.
In the case of “SERSSADAVFVGTAG (SERSAADAVFVGTAG; TS120A) [mutant peptide in which the 120th T was substituted with A]”, the “metastasis (migration)” value (A549 cells [1]) was “did not make any big difference with the control”, the sphere formation (A549 cells [2]) was “not much changed” and the invasion (A549 cells [3]) was “did not make any big difference with the control”. The cell proliferation (A549 cells [4]) was “not changed”.
For `CC(C)C[C@@H](C=O)NC(=O)[C@H](CC(C)C)NC(=O)[C@H](CC(C)C)NC(=O)OCc1ccccc1` [MG132] (Cbz-Leu-Leu-Leu-aldehyde), the “protein degradation of TSPYL5” value (TSPYL5; H460 cells, when the 120th amino acid of TSPYL5 was phosphorylated) was “suppressed”.
With `NC1(c2ccc(-c3nc4ccn5c(=O)[nH]nc5c4cc3-c3ccccc3)cc2)CCC1` [MK2206] the AKT phosphorylation (TSPYL5 protein [5]; 20 μM MK2206) was “suppressed”, the “expression of TSPYL5 protein” value (TSPYL5 protein [5]; 20 μM MK2206, time course) was “inhibited in proportion to the suppression time of AKT phosphorylation” and the “phosphorylation of TSPYL5” value (TSPYL5; [9]) was “inhibited”. For the same molecule, the “ubiquitination of TSPYL5” value (TSPYL5; [9]) was “increased”, the “expression of ALDH1A1” value (A549 cells [6]) was “reduced” and the “expression of ALDH1A3” value (A549 cells [6]) was “reduced”. For the same molecule, the “expression of CD44” value (A549 cells [6]) was “reduced”, the “expression of TSPYL5” value (A549 cells [6]) was “reduced” and the “expression of phosphorylated AKT” value (A549 cells [6]) was “reduced”. For the same molecule, the “TSPYL5 expression in the nucleus” value (TSPYL5 protein [7]) was “not expressed in the nucleus”.
With ginkgolic acid the “TSPYL5 protein expression in the nucleus” value (TSPYL5 protein [8]) was “not expressed in the nucleus”.
With “SERSAADDVFVGTAG (TS120D) [phosphorylation analogue mutant peptide in which the 120th T was substituted with D]” the “metastasis (migration)” value (A549 cells [1]) was “reduced”, the sphere formation (A549 cells [2]) was “suppressed” and the sphere formation (A549 cells [2]; listed as SEQ. ID. NO: 44) was “inhibited”. For the same molecule, the invasion (A549 cells [3]) was “reduced”, the cell proliferation (A549 cells [4]) was “significantly inhibited” and the cell proliferation (A549 cells [4]; listed as SEQ. ID. NO: 44) was “reduced”.
